US9717737B2, “Vacuolin-1 as an inhibitor of autophagy and endosomal trafficking and the use thereof for inhibiting tumor progression” (The University of Hong Kong, priority 2014, dated 2017)

Tests used:
[1] = system: human lung cancer stem cells (hLCSCs); experiment: Colony formation of hLCSCs; assay type: cell-based; settings: >10 μM
Excerpt: (§1) Cancer stem cells (CSCs), a subpopulation of cells within tumors, actually drive tumor growth and recurrence. CSCs are resistant to many current cancer treatments, including chemo- and radiation therapy, thus they can survive these therapy to regenerate new tumors. […] Therefore, it is of great interest to assess the anti-tumor effects of vacuolin-1 on CSCs.

[2] = system: human lung cancer stem cells (hLCSCs); experiment: Invasion of hLCSCs; assay type: cell-based; settings: >10 μM
Excerpt: as §1

HeLa cells [3] = experiment: Lysosomal pH measurement (LysoSensor Green DND-189, LysoSensor Yellow/Blue DND-160); assay type: cell-based; settings: 1 μM
Description: Lysosomal pH measurement—LysoSensor Green DND-189 is commonly used to measure the pH of acidic organelles, such as lysosomes, which become more fluorescent in acidic environments. Briefly, cells were loaded with 1 μMLysoSensor Green DND-189 in pre-warmed regular medium for 20 min at 37° C. Then the cells were washed twice with PBS and immediately analyzed by flow cytometry (collecting FL1 fluorescence and 10,000 cells were collected for each sample) or in a microplate reader (excitation/emission=485/530 nm).
Quantification of lysosomal pH was performed using a ratiometriclysosomal pH dye LysoSensor Yellow/Blue DND-160. The pH calibration curve was generated as described previously (Bankers-Fulbright et al., 2004). Briefly, cells were trypsinized and labeled with 2 μM Lysosensor Yellow/Blue DND-160 for 30 min at 37° C. in regular medium, and excessive dye was washed out using PBS. […] Quantitative comparisons were performed in a 96-well plate, and the fluorescence was measured with a microplate reader at 37° C. Light emitted at 440 and 535 nm in response to excitation at 340 and 380 nm were measured, respectively. The ratio of light emitted with 340 and 380 nm excitation was plotted against the pH values in IVIES buffer, and the pH calibration curve for the fluorescence probe was generated from the plot using Microsoft Excel.

CNE-1 and HONE-1 cells = experiment: Migration and invasiveness of nasopharyngeal carcinoma cells; assay type: cell-based, human
Description: Although CQ has already been applied to treat a wide spectrum of human cancers, CQ induces ocular or renal toxicity and easily triggers drug resistance (Kimura et al., 2013). […] We first investigated the anti-tumor effects of vacuolin-1 in two nasopharyngeal carcinoma cell lines, CNE-1 and HONE-1. […] Alternatively, colony formation assay was performed to assess whether vacuolin-1 affects the ability of a single tumor cell to grow into a colony. […] We subsequently performed wound healing assay to assess whether vacuolin-1 affects the migration of tumor cells. […] Obviously, vacuolin-1 is an efficient anti-tumor agent in vitro.

[4] = system: human lung cancer stem cells (hLCSCs); experiment: Tumor sphere formation of hLCSCs; assay type: cell-based; settings: >10 μM
Excerpt: as §1

Acute toxicity in mice = assay type: in vivo; settings: young adult mice
Description: We first assessed the ability of vacuolin-1 to suppress LCSC tumor xenograft in BALB/c nude mice. Briefly, 1×10^4 lung cancer stem cells (LCSCs, 3rd generation) were suspended in Matrigel (BD Biosciences) at a ratio of 1:1, and 200 iL of cells was subcutaneously injected into the back of nude mice. The tumor volume was measured every five days after injection and calculated from the formula: length×width×depth×π/6. Mice were removed from the study when their tumor volumes exceed 2000 mm^3 (FIG. 18A). […] Also, we tested the acute toxicity of vacuolin-1 in mice.

HeLa cells [5] = experiment: Cathepsin L processing (western blot); assay type: cell-based; settings: 1 μM
HeLa cells [6] = experiment: Immunofluorescence staining of GFP-LC3 puncta and RFP-Lamp1; assay type: cell-based; settings: 1 μM
Description: Western blot and Immunofluorescence staining analyses—Both assays were performed as described previously (Lu et al., 2013).

HeLa cells [7] = experiment: EGFR degradation assay; assay type: cell-based; settings: HeLa cells treated with EGF
Description: Since the increase of lysosomal pH normally compromises the lysosomal activity, it was assessed whether vacuolin-1 affects the general lysosomal functions to inhibit autophagy maturation. […] Next, an epidermal growth factor receptor (EGFR) degradation assay was performed to examine whether vacuolin-1 affects the general endosomal-lysosomal pathway. In this assay, HeLa cells were treated with EGF in the presence or absence of vacuolin-1. After EGF binds to its receptors (EGFR), the receptor complex undergoes endocytosis and is targeted tolysosomes for degradation. […] Similarly, a DQ-BSA-green degradation assay was applied to measure the general endosomal-lysosomal degradation. DQ-BSA-green is a BSA labeled with a self-quenching fluorescent dye. After DQ-BSA-green is delivered to lysosomes via endocytosis, it is hydrolyzed into single dye-labeled peptides by lysosomal proteases, thereby relieving self-quenching and the fluorescence can subsequently be monitored by flow cytometry.

Rab5 = target: T1, Rab5 (Homo sapiens, UniProt P20339); experiment: GST-tagged Rabaptin5 pull-down assay for active Rab5; assay type: cell-based; settings: HeLa cells, 1 μM
T1 construct: results of a GST-tagged Rabaptin5 pull-down assay in HeLa cells showing active Rab5 in cells treated with vacuolin-1 (1 μM); endogenous in cells; host or cells: HeLa cells
T1 sequence (P20339 1-215): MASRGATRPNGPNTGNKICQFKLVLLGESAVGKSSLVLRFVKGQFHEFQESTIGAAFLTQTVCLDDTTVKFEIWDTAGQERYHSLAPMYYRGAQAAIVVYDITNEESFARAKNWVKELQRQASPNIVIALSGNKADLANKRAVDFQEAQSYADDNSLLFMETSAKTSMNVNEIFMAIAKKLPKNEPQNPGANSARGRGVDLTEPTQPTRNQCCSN
Description: Glutathione S-Transferase (GST) Pull-Down Assay—Cells were collected and lysed in an ice-cold EBC lysis buffer described previously. Lysates were clarified by centrifugation at 13,000 g for 10 min at 4° C., and equal amount of protein (500 μg) from each supernatant was incubated with 30 μl of GST-RSBD bound to the 30 μl glutathione—Sepharose beads for 1 h at 4° C. on a rotating mixer. The beads was subsequently washed and resuspended in the standard SDS-sample buffer, boiled and subjected to SDS-PAGE (15% gel), followed by immunoblot analysis with the anti-Rab5 mAb.

## Ic1cccc(/C=N/Nc2nc(N3CCOCC3)nc(N(c3ccccc3)c3ccccc3)n2)c1 [vacuolin-1]
[1]
  colony formation of hLCSCs: almost completely inhibited
[2]
  invasion of hLCSCs: almost completely inhibited
HeLa cells [3]
  lysosomal pH, qualitative (LysoSensor Green DND-189): raised lysosomal pH
HeLa cells [3]; control cells pH 4.7
  lysosomal pH, quantitative ratiometric (LysoSensor Yellow/Blue DND-160): 5.2 pH
CNE-1 and HONE-1 cells; FIG. 16D
  migration: markedly inhibited
CNE-1 and HONE-1 cells; FIG. 16E
  invasiveness: markedly inhibited
[4]
  tumor sphere formation of hLCSCs: almost completely inhibited
Acute toxicity in mice; intraperitoneal 250 mg/kg, after two weeks
  activity and weight gain compared to control: normal activity and weight gain
Acute toxicity in mice; intraperitoneal injection 250 mg/kg
  acute toxicity: little acute toxicity
HeLa cells [5]
  levels of immature form of cathepsin L: markedly increase
  processing of cathepsin L into its mature form: not affected
HeLa cells [6]
  GFP-LC3 puncta: greatly increased
  co-localization of GFP-LC3 puncta with Lamp1: did not co-localize with Lamp1
HeLa cells [7]
  EGF-triggered EGFR degradation: inhibited EGF-triggered EGFR degradation
Rab5
  Rab5 activation (Rab5-GTP pull-down): markedly activated Rab5
